Source: US20260109689A1, “NOVEL COMPOUNDS” (Hoffmann-La Roche Inc., priority 2023, published 2026)

Legend:
mouse P-gp = assay: Transcellular P-gp assay (mouse P-gp); type: in vitro ADME; conditions: LLC-PK1, first value of cell, transfected LLC-PK cells; for efflux ratio: read-out: Apical Efflux Ratio; for Papp: read-out: Permeability
Text: (§1) The general assay uses transfected LLC-PKT cells (porcine kidney epithelial cells) over-expressing human or mouse P-gp, cultured on 96 well semi-permeable filter membrane plates, where they form a polarized monolayer with tight junctions, and act as a barrier between the apical and basolateral compartment.
(§2) P-gp is expressed in the apical-facing membrane of the monolayer.
(§3) The tightness of the cell monolayer and functional activity of P-gp are confirmed by addition of a cell-impermeable marker, Lucifer yellow, and a reference P-gp substrate, edoxaban, respectively.

human P-gp = molecular target: T1, human P-gp (Homo sapiens, UniProt P08183); assay: Transcellular P-gp assay (human P-gp); type: in vitro ADME; conditions: LLC-PK1, second value of cell, transfected LLC-PK cells; for efflux ratio: read-out: Apical Efflux Ratio; for Papp: read-out: Permeability
T1 construct: expressed in transfected cells; host or cells: LLC-PKT (so in the source) porcine kidney epithelial cells
T1 sequence (P08183 whole entry): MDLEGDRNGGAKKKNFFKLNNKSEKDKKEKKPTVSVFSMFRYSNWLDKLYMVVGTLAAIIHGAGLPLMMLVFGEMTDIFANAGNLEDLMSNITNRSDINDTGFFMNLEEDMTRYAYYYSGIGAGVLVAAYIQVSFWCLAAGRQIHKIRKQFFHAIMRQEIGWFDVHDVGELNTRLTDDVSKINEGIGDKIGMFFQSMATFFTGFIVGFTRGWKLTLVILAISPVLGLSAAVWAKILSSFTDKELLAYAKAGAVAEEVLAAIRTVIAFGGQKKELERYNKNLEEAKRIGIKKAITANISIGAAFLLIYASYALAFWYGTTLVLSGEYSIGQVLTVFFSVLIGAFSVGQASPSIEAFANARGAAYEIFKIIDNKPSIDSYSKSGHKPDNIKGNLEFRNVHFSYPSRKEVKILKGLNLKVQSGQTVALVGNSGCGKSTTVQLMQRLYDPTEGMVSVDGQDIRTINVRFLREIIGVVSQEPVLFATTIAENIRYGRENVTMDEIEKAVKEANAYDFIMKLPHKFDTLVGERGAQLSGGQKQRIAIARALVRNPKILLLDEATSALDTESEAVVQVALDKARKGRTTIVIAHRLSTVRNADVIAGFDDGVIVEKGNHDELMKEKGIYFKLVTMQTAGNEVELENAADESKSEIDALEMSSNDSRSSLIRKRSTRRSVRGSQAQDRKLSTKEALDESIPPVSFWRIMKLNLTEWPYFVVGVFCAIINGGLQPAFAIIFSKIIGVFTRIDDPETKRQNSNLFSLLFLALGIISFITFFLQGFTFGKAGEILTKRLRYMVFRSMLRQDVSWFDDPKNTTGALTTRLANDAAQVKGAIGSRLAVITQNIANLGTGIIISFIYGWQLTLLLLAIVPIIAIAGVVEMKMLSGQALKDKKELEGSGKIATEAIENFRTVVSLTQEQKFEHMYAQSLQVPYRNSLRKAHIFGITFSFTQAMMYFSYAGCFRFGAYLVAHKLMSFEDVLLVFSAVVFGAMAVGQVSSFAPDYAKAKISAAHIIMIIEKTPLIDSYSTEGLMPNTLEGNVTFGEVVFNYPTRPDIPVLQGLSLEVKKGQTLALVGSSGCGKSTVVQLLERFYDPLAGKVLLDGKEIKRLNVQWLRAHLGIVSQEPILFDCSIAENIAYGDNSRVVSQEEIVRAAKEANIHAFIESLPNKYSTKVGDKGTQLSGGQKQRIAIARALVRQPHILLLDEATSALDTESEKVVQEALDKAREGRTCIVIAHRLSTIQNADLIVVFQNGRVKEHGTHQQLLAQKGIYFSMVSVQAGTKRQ
Text: as §1, §2, §3

[1] = molecular target: T2, hERG cardiac potassium channel (Homo sapiens, UniProt Q12809); assay: hERG screening assay (automated patch clamp); type: cell-based; conditions: CHO crelox hERG cells, whole-cell patch clamp, 35-37° C.
T2 construct: Evotec (cryopreserved cells) ATCC PTA-6812; host or cells: CHO crelox hERG cell line (Chinese hamster)
T2 sequence (Q12809 whole entry): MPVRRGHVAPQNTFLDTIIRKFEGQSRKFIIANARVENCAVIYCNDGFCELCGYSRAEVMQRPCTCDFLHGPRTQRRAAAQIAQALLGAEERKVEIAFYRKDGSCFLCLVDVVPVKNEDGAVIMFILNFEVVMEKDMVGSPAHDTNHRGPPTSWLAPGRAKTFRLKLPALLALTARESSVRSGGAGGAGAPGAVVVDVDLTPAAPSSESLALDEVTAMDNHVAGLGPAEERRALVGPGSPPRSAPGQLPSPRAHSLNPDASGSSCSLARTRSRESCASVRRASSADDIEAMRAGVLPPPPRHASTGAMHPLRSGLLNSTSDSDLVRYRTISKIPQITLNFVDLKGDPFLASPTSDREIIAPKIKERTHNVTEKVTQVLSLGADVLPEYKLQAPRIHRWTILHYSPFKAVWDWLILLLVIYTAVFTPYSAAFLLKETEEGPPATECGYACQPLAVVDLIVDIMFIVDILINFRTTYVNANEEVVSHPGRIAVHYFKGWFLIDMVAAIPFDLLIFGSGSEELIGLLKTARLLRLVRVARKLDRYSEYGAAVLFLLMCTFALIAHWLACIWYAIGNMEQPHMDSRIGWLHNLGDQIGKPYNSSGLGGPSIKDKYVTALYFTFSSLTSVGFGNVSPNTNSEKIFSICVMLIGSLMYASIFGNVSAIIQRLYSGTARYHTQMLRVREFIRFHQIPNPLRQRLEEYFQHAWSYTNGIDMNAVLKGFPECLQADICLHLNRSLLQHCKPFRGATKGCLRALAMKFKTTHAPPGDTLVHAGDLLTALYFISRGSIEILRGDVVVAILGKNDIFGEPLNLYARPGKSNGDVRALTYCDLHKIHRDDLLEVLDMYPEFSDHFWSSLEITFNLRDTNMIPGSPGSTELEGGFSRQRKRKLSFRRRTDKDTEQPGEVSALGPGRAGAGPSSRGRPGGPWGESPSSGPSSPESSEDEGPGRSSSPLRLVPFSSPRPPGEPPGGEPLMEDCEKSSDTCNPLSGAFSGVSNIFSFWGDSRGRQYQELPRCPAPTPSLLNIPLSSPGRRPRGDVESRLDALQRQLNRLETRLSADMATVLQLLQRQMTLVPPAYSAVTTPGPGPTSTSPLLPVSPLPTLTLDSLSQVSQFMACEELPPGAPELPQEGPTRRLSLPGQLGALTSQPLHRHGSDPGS
Text: In the drug development process of small molecules, one of the most frequent adverse side effects, leading to the failure of drugs, is the cardiac arrhythmias. Such failure is often related to the capacity of the drug to inhibit the human ether-a-go-go-related gene (hERG) cardiac potassium channel. Having no or low inhibition of the hERG cardiac potassium channel is therefore considered as beneficial.
The CHO crelox hERG cell line (ATCC reference Nr. PTA-6812, female Chinese hamster cells) was generated and validated at Roche. Ready-to-use frozen instant CHO-hERG cells were cryopreserved at Evotec (Germany) and used directly in the experiments.
The extracellular solution contains (in mM): NaCl 150; KCl 4; CaCl2 1; MgCl2 1; HEPES 10; pH 7.2-7.4 with NaOH, osmolarity 290-330 mOsm. […]
The effects of a compound on hERG K+-currents parameters will be evaluated at 2 concentrations in at least 4 cells.
The hERG test is performed using automated patch clamp system SynchroPatch® 384 (Nanion Technologies GmbH, Germany). K+ currents are measured with the patch-voltage-clamp technique in the whole-cell configuration at 35-37° C. […]
The amplitudes of IKhERG were recorded in each concentration of drug and they were compared to the vehicle control values (taken as 100%) to define fractional blocks. […]

efflux ratio (mouse P-gp) | Papp (mouse P-gp) [×10⁻⁶ cm/s] | efflux ratio (human P-gp) | Papp (human P-gp) [×10⁻⁶ cm/s] | SMILES | IC20 [1] [µM]
2 | 23.2 | 1.2 | 25 | CCN1CCC[C@@H](Nc2nnc(-c3ccc4c(c3O)CCO4)n(C)c2=O)C1 [RE-A, 6-[[(3R)-1-Ethyl-3-piperidyl]amino]-3-(4-hydroxy-2,3-dihydrobenzofuran-5-yl)-4-methyl-1,2,4-triazin-5-one, reference compound] | –
10 | 17 | 4.8 | 19 | Cn1c(-c2ccc3c(c2O)CCC3)nnc(N[C@@H]2CCCN(CCO)C2)c1=O [Example 2, 6-[[(3R)-1-(2-Hydroxyethyl)-3-piperidyl]amino]-3-(4-hydroxyindan-5-yl)-4-methyl-1,2,4-triazin-5-one] | > 10
8.6 | 4.7 | 4.8 | 4.7 | Cn1c(-c2ccc3c(c2O)CCO3)nnc(N[C@@H]2CCCN(CCO)C2)c1=O [Example 1, 3-(4-Hydroxy-2,3-dihydrobenzofuran-5-yl)-6-[[(3R)-1-(2-hydroxyethyl)-3-piperidyl]amino]-4-methyl-1,2,4-triazin-5-one] | > 10
